Type in all cases: cell-based
Assay [1] has as its system Staphylococcus epidermidis ATCC 12228. In words: Residual effect test on inoculated agar carrier (Table 4). Here is the method: The test substance or PEOA was applied to target which consisted of a microbe inoculated agar plate. The application of the PEOA can be by means such as a dropper, fog, mist or spray or any other acceptable means. […] PEOA was applied to inoculated plates at intervals of 1 minute, 5 minutes, 10 minutes, 30 minutes, 1 hour, 12 hours, 24 hours, 2, days, 5 days, and 7 days after radiation exposure. In one test, after 7 days, the PEOA was again subjected to photon emissions from 0.01 nm to 845 nm for the test labeled reactivation. An additional photon and or phonon exposure similar to the initial enhancement by photon and or phonons of 0.01 nm through 845 nm was the reactivation dose of photons.

In another assay the test system is E. coli. Kind of assay: Microbial reduction by stored photon enhanced solution versus un-exposed hydrogen peroxide. The following applies: samples at 4 weeks post exposure to photons; control not exposed.
A further assay has as its system microbial counts. Kind of assay: Independent research lab testing, microbial reduction, 5 minute contact time. The following applies: 1 part per million, 5 minute contact time with the ambient air.

Structures are written as SMILES.

Procedure for microbial counts: A small micron PEOA antimicrobial dry fog is administered into the ambient air through an existing HVAC system and device at a concentration of less than 1 part per million.

In the case of `OO` [Control, hydrogen peroxide], the CFU/carrier stood at 6.04E+05 CFU/carrier in assay [1] (Control, time after radiation exposure N/A); 3.00E+05 CFU/carrier in assay [1] (applied to carrier 2 Days after radiation exposure); 4.50E+04 CFU/carrier in assay [1] (applied to carrier 5 Days after radiation exposure); 9.80E+04 CFU/carrier in assay [1] (applied to carrier 7 Days after radiation exposure); 9.20E+04 CFU/carrier in assay [1] (applied to carrier 12 Hours after radiation exposure); 1.33E+05 CFU/carrier in assay [1] (applied to carrier 24 Hours after radiation exposure).

As to `OO` [hydrogen peroxide], in the assay with E. coli, the “microbial (E. coli) reduction” value amounted to 23.08%.

Consider `OO` [standard hydrogen peroxide, hydrogen peroxide], for which, in the assay with microbial counts, the microbial reduction result is listed as “little or no microbial reduction”.

The values above are taken from US20240002229A1, “DEVICE FOR ENHANCING REACTION POTENTIAL OF OXIDIZING AGENTS” (Bis Science LLC, priority 2022, published 2024).
